According to ChEMBL document CHEMBL5150027, “The inhibition of monoamine oxidase by 2H-1,4-benzothiazin-3(4H)-ones” (Bioorg Med Chem Lett, 2022):

The molecules below were run against T1, Amine oxidase [flavin-containing] B (Homo sapiens, UniProt P27338).
T1 sequence (P27338 whole entry): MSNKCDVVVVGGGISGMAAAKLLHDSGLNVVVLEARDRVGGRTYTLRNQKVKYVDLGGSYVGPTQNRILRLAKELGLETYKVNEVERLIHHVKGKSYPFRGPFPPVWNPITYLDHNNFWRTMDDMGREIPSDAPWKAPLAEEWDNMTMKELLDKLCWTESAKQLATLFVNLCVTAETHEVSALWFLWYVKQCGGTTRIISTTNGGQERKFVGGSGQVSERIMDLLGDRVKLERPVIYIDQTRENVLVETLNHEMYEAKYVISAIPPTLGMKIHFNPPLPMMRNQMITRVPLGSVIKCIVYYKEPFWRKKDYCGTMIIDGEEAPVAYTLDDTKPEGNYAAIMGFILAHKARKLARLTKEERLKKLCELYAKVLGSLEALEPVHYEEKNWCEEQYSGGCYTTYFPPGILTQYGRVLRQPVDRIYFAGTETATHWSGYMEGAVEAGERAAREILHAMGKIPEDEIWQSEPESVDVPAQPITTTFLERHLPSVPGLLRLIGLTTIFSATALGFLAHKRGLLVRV

Point of comparison: O=C1CSc2cc(OCc3ccc(Cl)cc3)ccc2N1, IC50 0.0027 µM. Against it:
- COc1ccc2c(c1)SCC(=O)N2 — 16000-fold higher, 42.6 µM
- O=C1CSc2cc(OCCc3ccccc3)ccc2N1 — 62-fold higher, 0.167 µM
- N#Cc1ccc(COc2ccc3c(c2)SCC(=O)N3)cc1 — 3.6-fold higher, 0.0096 µM
- O=C1CSc2cc(OCc3ccc(Br)cc3)ccc2N1 — 1.5-fold higher, 0.0041 µM
- O=C1CSc2cc(OCC3CCCCC3)ccc2N1 — 8.9-fold higher, 0.024 µM
- O=C1CSc2cc(OCc3ccccc3)ccc2N1 — 26-fold higher, 0.071 µM
- O=C1CSc2cc(O)ccc2N1 — 7400-fold higher, 20 µM
- O=C1CSc2cc(OCCCc3ccccc3)ccc2N1 — 7.4-fold higher, 0.02 µM
- CCCOc1ccc2c(c1)SCC(=O)N2 — 1100-fold higher, 2.87 µM
- Cc1ccc(COc2ccc3c(c2)SCC(=O)N3)cc1 — 3-fold higher, 0.0082 µM

What follows are molecules tested against D-amino-acid oxidase (Sus scrofa, UniProt P00371) (assay: Inhibition of porcine kidney DAAO using D-serine as substrate assessed as H2O2 formation by amplex red and peroxidase-coupled continuous fluorescence spectrophotometric analysis).
D-amino-acid oxidase, sequence (P00371 whole entry): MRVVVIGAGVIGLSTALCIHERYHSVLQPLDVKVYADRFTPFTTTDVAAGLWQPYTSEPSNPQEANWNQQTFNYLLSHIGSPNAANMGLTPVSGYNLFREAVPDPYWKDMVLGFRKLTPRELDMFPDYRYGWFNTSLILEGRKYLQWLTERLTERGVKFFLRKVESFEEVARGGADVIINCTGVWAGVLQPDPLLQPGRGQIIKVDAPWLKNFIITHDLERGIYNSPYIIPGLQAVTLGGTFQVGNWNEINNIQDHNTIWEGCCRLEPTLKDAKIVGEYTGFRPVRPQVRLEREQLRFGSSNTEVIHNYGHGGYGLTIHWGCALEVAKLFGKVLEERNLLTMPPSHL

Point of comparison: N#Cc1ccc(COc2ccc3c(c2)SCC(=O)N3)cc1, IC50 47.5 µM. Against it:
- O=C1CSc2cc(O)ccc2N1 — 11-fold lower, 4.2 µM
- O=C1CSc2cc(OCc3ccc(Cl)cc3)ccc2N1 — 1.5-fold higher, 73.2 µM

Each molecule was assayed against T2, Amine oxidase [flavin-containing] A (Homo sapiens, UniProt P21397) (assay: Inhibition of recombinant human MAO-A using kynuramine as substrate assessed as inhibition of 4-hydroxyquinoline formation incubated for 20 mins by fluorescence spectrophotometric analysis).
T2 sequence (P21397 whole entry): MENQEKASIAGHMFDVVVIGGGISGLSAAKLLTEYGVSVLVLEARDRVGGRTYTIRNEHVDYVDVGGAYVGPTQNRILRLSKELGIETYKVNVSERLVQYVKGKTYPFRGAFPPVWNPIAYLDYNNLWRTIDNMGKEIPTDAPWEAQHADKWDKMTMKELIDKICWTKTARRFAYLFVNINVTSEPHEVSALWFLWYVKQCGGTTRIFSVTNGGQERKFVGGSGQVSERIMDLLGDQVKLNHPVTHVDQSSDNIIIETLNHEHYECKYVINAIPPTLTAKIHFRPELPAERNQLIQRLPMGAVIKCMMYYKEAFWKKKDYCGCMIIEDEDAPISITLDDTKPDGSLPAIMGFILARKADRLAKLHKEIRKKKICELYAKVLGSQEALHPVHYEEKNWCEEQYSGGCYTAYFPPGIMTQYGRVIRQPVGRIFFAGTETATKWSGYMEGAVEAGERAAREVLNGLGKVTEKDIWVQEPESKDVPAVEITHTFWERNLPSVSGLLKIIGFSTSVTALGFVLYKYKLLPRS

Point of comparison: O=C1CSc2cc(OCCCc3ccccc3)ccc2N1, IC50 96.8 µM. Against it:
- COc1ccc2c(c1)SCC(=O)N2 — 4.6-fold lower, 21.1 µM
- O=C1CSc2cc(OCCc3ccccc3)ccc2N1 — 7.4-fold lower, 13.1 µM
- N#Cc1ccc(COc2ccc3c(c2)SCC(=O)N3)cc1 — 140-fold lower, 0.714 µM
- O=C1CSc2cc(OCc3ccc(Br)cc3)ccc2N1 — 6.2-fold lower, 15.6 µM
- O=C1CSc2cc(OCC3CCCCC3)ccc2N1 — 83-fold lower, 1.17 µM
- O=C1CSc2cc(OCc3ccccc3)ccc2N1 — 12-fold lower, 8.06 µM
- O=C1CSc2cc(O)ccc2N1 — 5-fold lower, 19.2 µM
- O=C1CSc2cc(OCc3ccc(Cl)cc3)ccc2N1 — 4-fold lower, 24.4 µM
- CCCOc1ccc2c(c1)SCC(=O)N2 — 15-fold lower, 6.51 µM

Each molecule was assayed against T1, Amine oxidase [flavin-containing] B (assay: Competitive inhibition of recombinant human MAO-B using kynuramine as substrate assessed as enzyme-inhibitor dissociation constant at varying substrate concentration by Lineweaver-burk plot analysis).

In the case of N#Cc1ccc(COc2ccc3c(c2)SCC(=O)N3)cc1, the Ki is reported as 0.0067 µM.
